Where two headings read alike, the source gives them in different places. Non-standard residues stand in square brackets, D forms with d. Residues, ends and D or L forms follow the SMILES beside them.
Key:
HaCaT keratinocytes = system: HaCaT keratinocytes
Description: Cell viability is expressed as percentage with respect to the control (cells not treated with the peptide). Data points represent the mean of triplicate samples ±SEM.

HaCaT cells = assay: Wound healing assay, HaCaT cells; type: cell-based, human; settings: HaCaT monolayer
Description: The percentage of cell-covered area at each time point is reported on the y-axis. Control (Ctrl) represents cells not treated with the peptide. All data are the mean of at least three independent experiments ±SEM. […] The optimal concentration allowing gap closure was 0.25 μM.
The experimental procedure is similar to that described in Example 6 with the following two differences: (i) 40,000 cells suspended in DMEM supplemented with 4 mM glutamine and 10% FBS were seeded on each side of the ibidi culture inserts instead of 70,000 cells in KGM-2g as for corneal epithelial cells; (ii) serum-free medium was used in the wound healing assay instead of medium supplemented with 5% FBS as for corneal epithelial cells. […] Overall, the experiments indicate that Esc-1a(1-21)NH2 can stimulate wound closure in different types of mammalian cells but this is with a different kinetic or optimal concentration and thus a stereospecific mechanism involving a direct/indirect activation of different signalling transduction cascades (depending on the selected cell type) likely subtends such events.

[1] = system: human telomerase immortalized corneal epithelial cells; assay: in vitro
Description: Human corneal epithelial cells were incubated with varying concentrations of Esc-1a(1-21)NH2 for 24 hrs then cytotoxicity determined by MTT assay. Data are the mean of 3 independent experiments.
To determine the toxicity of Esc-1a(1-21)NH2 to human telomerase immortalized corneal epithelial cells, the following experiment was performed. The MTT (3-(4,5-Dimethylthiazole-2-yl)-2,5-diphenyltetrazolium bromide) assay measures the activity of enzymes that reduce the tetrazolium blue dye to a formazan salt. Mitochondrial reductase enzymes will reduce MTT to formazan, which can be visualized by colorimetric reaction the absorbance of which can be quantified.
MTT assay was performed on human telomerase immortalized corneal epithelial cells treated with different concentrations of the peptide for 24 hrs. The test was performed in triplicate or quadruplicate wells with concentrations of the peptide of up to 100 μM using the following protocol. On day 1, plated the telomerase immortalized epithelial cells at 10,000 cells/well in a 96 well plate. Incubated the plate at 37° C. for […] to allow the cells to attach to the plate and spread. On day 2, incubated the cells in serum free media for at least 6 hrs prior to peptide treatment. On day 3, stimulated the cells with 100, 50, 25, 10, 5, 1, 0.5 and 0.1 μM Esc-1a(1-21)NH2 in quadruplicate for 24 hrs. On day 4, added 50 μl of 0.02% Benzalkonium chloride into 4 wells as a positive control for 15 minutes. Added 50 μl of serum free media into all the other wells (total volume 100 μl). Added 10 μl of MTT stock solution into each of the well. Incubated at 37° C. for 3 hours. At the end of 3 hours purple crystals were visible under the microscope. Added 100 μl of stop solution into each well using a multichannel pipette. Pipetted up and down to dissolve all the crystals. Gently popped the bubbles using a 10 μl tip. Read plate using plate reader at 590 nm abs and 635 nm reference. Subtracted reference OD value (635) from 590 OD value and plotted graph.

P. aeruginosa ATCC 27853 = settings: soluble free form, 1 μM, within 20 minutes in PBS
in vitro = settings: for Peptide Amount (%): 24 h, 37° C.; for remaining at 5 h, 0.575 mM / remaining at 24 h, 0.575 mM: human
Description: A total of 125 μl of a 0.92 mM solution of each peptide was incubated at 37° C. with 20 μl and 60 μl human serum. Samples were collected after 5 h and 24 h of incubation, precipitated with 200 μl methanol, and centrifuged for 2 min at 10,000 g.
The crude solution was then analyzed by high-performance liquid chromatography (HPLC) and mass spectrometry. HPLC was performed with a Vydac C18 column, and the crude solution was diluted 5 times with 0.1% trifluoroacetic acid before injection and monitored at 280 nm.

[2] = system: P. aeruginosa ATCC 27853 biofilm; settings: 2 hours treatment
Description: Data points are the mean±SEM of three independent experiments. The levels of statistically significant differences between the two peptides are indicated as follows *P<0.05, **P<0.01, ***P<0.001
The reference strain and the clinical isolates were grown at 37° C. in Luria-Bertani broth (LB) to mid-log phase (optical density of 0.8 at 590 nm). With the help of tweezers, silicone hydrogel narafilcon A soft CL (1-Day ACUVUE TruEye) were removed from the manufacturer's containers, and washed thrice in phosphate buffered saline (PBS). The lenses were then immersed into wells of a 24-multiwell plate, each well containing 1 mL of bacterial inoculum in 1/10 LB at a concentration of 5×10^4 colony-forming units (CFU)/mL. Noteworthy, the number of bacteria isolated from CL storage cases has been reported to range from 1 to 6×10^4 CFU/case (2, 10). Therefore, in order to reproduce a more realistic level of bacteria to which CLs can be exposed, an inoculum size of 5×10^4 CFU/mL was used for biofilm formation.
The plate was then incubated in a humidified incubator at 37° C. at 125 rpm to allow biofilm formation on the surface of both lens sides. After 20 hours of incubation, each lens was washed thrice with PBS to remove any non-adherent planktonic cells.
The lenses were then transferred into wells of a new 24-multiwell plate, each well containing serial dilutions of Esc-1a(1-21)NH2 and Esc-1a(1-21)-1cNH2 in PBS. For […] controls, the lenses were immersed in sterile PBS. The new plate was then incubated at 37° C. for 2 hours with gentle shaking (125 rpm). After peptide treatment, each lens was washed thrice in PBS and transferred into wells of another 24-multiwell plate, each well containing 350 μL of 0.5 mg/mL of 3-(4,5-dimethylthiazol-2-yl)-2,5-diphenyltetrazolium bromide (MTT, from Sigma Aldrich, Milan, Italy) in Hank's solution (136 mM NaCl; 0.34 mM Na2HPO4; 0.44 mMKH2PO4; 5.4 mM KCl; 4.1 mM NaHCO3 pH 7.2, supplemented with 5.5 mM D-glucose) as previously reported (8). The killing of biofilms was determined as a function of the inhibition of MTT reduction to insoluble formazan crystals by bacterial reductases. The plate was incubated again for 2 hours (125 rpm) at 37° C. Formazan crystals were solubilized by the addition of acidified isopropanol. During overnight incubation at room temperature the resulting purple color was absorbed by the lens. Afterward, each lens was soaked in absolute ethanol (500 μL in each well) to decolor it. Aliquots of 100 μL were finally transferred to the wells of a 96-multiwell plate and absorbance was measured at 590 nm using a microplate reader (Infine M 200, Tecan). Untreated bacterial cells in PBS were the control. Percentage of killing was calculated according to the formula: [1−(Abs of treated samples−Abs of blank/Abs of control samples-Abs of blank)][…], where the blank was the solvent PBS.

Raw 264.7 macrophages = assay: MTT viability assay, Raw 264.7 macrophages; settings: 256 μM (highest concentration), 24 h
Description: (§1) Cell viability is expressed as percentage with respect to the control (cells not treated with the peptides). Data points represent the mean of triplicate samples ±SEM. […] The levels of statistical significance between the two peptides are indicated as follows: **p<0.01, ***p<0.001.
(§2) Cells were plated in wells of a microtiter plate, at 4×10^4 cells/well in DMEM supplemented with 2 mM glutamine and 2% FBS (for A549 cells) or DMEM containing 2 mM glutamine, non-essential amino acids (NEAA), sodium pyruvate and 2% FBS (for Raw 264.7 macrophages). After overnight incubation at 37° C. in a 5% CO2 atmosphere, the medium was replaced with 100 μl fresh serum-free medium supplemented with the peptides at different concentrations. After 24 h of peptide treatment, cell viability was determined by a MTT assay.

[3] = MTT viability assay, A549 cells; settings: human
Description: as §1, §2

[4] = system: A549 lung epithelial cells; assay: Wound healing assay, A549 lung epithelial cells; type: cell-based, human; settings: A549 monolayer
Description: The percentage of cell-covered area at each time point is reported on the y-axis. Control (Ctrl) represents cells not treated with the peptides. All data are the mean of at least three independent experiments ±SEM. […] Both peptides were able to stimulate the closure of the gap produced in the monolayer of A549 cells, with the optimal concentration allowing the almost complete coverage of the wound field equal to 10 μM (for the wild type peptide, FIG. 13A) or 4 μM (for the diastereomer, FIG. 13B) within approximately 24 hours or 20 hours, respectively.
As shown in FIGS. 13A-13B, Esc-1a(1-21)NH2 and its diastereomer both stimulated wound closure although at concentrations much higher than were required to induce a similar effect in human corneal epithelial cells. This may reflect cell specific differences.

With CC[C@@H](C)[C@@H](NC(=O)CN)C(=O)N[C@H](Cc1ccccc1)C(=O)N[C@H](CO)C(=O)N[C@H](CCCCN)C(=O)N[C@H](CC(C)C)C(=O)N[C@H](C)C(=O)NCC(=O)N[C@H](CCCCN)C(=O)N[C@H](CCCCN)C(=O)N[C@@H](C(=O)N[C@H](CCCCN)C(=O)N[C@H](CC(N)=O)C(=O)N[C@H](CC(C)C)C(=O)N[C@H](CC(C)C)C(=O)N[C@@H](C(=O)N[C@H](CO)C(=O)NCC(=O)N[C@H](CC(C)C)C(=O)N[C@H](CCCCN)C(=O)NCC(N)=O)[C@H](C)CC)[C@H](C)CC [all D Esc-1a(1-21)NH2] (H-G[dI][dF][dS][dK][dL][dA]G[dK][dK][dI][dK][dN][dL][dL][dI][dS]G[dL][dK]G-NH2; N-terminus assumed) the “reduction in the number of metabolically-active keratinocytes” value (HaCaT keratinocytes; 2 h treatment, 1-64 μM) was “did not show any remarkable reduction”, the “toxicity to HaCaT keratinocytes” value (HaCaT keratinocytes; higher concentration tested, 24 h) was “did not show toxicity” and the “cell-covered area vs untreated control cells” value (HaCaT cells) was “no statistically significant difference”.

Compound “benzalkonium chloride [BAC, reference compound]” has a cytotoxicity ([1]; positive control (FIG. 4)) of ~100% and a viability ([1]; positive control, 0.02% for 15 minutes) of 6.2%.

For CC[C@H](C)[C@H](NC(=O)CN)C(=O)N[C@@H](Cc1ccccc1)C(=O)N[C@@H](CO)C(=O)N[C@@H](CCCCN)C(=O)N[C@@H](CC(C)C)C(=O)N[C@@H](C)C(=O)NCC(=O)N[C@@H](CCCCN)C(=O)N[C@@H](CCCCN)C(=O)N[C@H](C(=O)N[C@@H](CCCCN)C(=O)N[C@@H](CC(N)=O)C(=O)N[C@H](CC(C)C)C(=O)N[C@@H](CC(C)C)C(=O)N[C@H](C(=O)N[C@H](CO)C(=O)NCC(=O)N[C@@H](CC(C)C)C(=O)N[C@@H](CCCCN)C(=O)NCC(N)=O)[C@@H](C)CC)[C@@H](C)CC [Esc-1a(1-21)-1cNH2] (H-GIFSKLAGKKIKN[dL]LI[dS]GLKG-NH2; N-terminus assumed), the killing (P. aeruginosa ATCC 27853) was ~90%, the “Peptide Amount (%)” value (in vitro; 10% human fresh serum) was 45.61% and the “Peptide Amount (%)” value (in vitro; 30% human fresh serum) was 25.46%. For the same compound, the remaining at 5 h, 0.575 mM (in vitro; 10% human fresh serum) was 63.3%, the remaining at 24 h, 0.575 mM (in vitro; 10% human fresh serum) was 45.6% and the remaining at 5 h, 0.575 mM (in vitro; 30% human fresh serum) was 30.1%. For the same compound, the remaining at 24 h, 0.575 mM (in vitro; 30% human fresh serum) was 25.5%, the biofilm killing ([2]; 4 μM) was ~35% and the biofilm death ([2]; 16 μM) was ~80%. For the same compound, the biofilm killing ([2]; 32 μM) was ~90%, the “decrease in the percentage of metabolically-active cells” value (Raw 264.7 macrophages) was ~20% and the CC50 at 24 h [3] was > 256 µM. For the same compound, the “optimal concentration allowing almost complete coverage of the wound field” value [4] was 4 µM and the “time to almost complete coverage of the wound field” value ([4]; at optimal concentration) was ~20 h.
